Experimental findings from PMC13223435, “Synthesis and Antiproliferative Activity against Melanoma Cells of New Heterocyclic Hybrids Based on Pyridine and Pyrimidine Scaffolds” (Current Medicinal Chemistry, 2025) are described below.

The test system of one assay is A375 cells. As to the kind of experiment: Annexin V-PE/7-AAD apoptosis assay (Muse). The format is cell-based. As to conditions: 48 h, early and late apoptotic. On the procedure: In this study, A375 cells were initially seeded into 24-well plates at a density of 1×10^4 cells per well. After 24 hours, the cell culture medium was carefully removed, and a new medium containing 16b and 29 at varying final concentrations (1, 5, and 10 µM) was added, followed by an additional 48-hour incubation. Cells in a medium containing 0.2% DMSO served as the control group. After the treatment period, cells were washed with phosphate-buffered saline (PBS), and both the cell medium and PBS wash were retained. The cells were then detached using trypsin and centrifuged. The resulting cell pellet was suspended in a fresh medium after discarding the supernatant. An equivalent volume of Muse Annexin V & Dead Cell Reagent (Luminex Corporation, Austin, TX, USA) was added and thoroughly mixed through repeated pipetting. The staining procedure was conducted for 20 minutes at room temperature in the absence of light. The Muse Cell Analyzer (Luminex Corporation, Austin, TX, USA) was utilized for analysis. This assay detects phosphatidylserine (PS) on apoptotic cell surfaces using annexin V-PE (phycoerythrin) binding. A 7-AAD (7-aminoactinomycin D) marker was used to assess cell membrane integrity. The dual staining approach enabled the identification of four distinct cell groups: viable (Annexin V-PE− and 7-AAD−), early apoptotic (Annexin V-PE+ and 7-AAD−), late apoptotic/dead (Annexin V-PE+ and 7-AAD+), and primarily nuclear debris (Annexin V-PE− and 7-AAD+). The findings were based on at least three separate experimental runs.

In the next assay the test system is melanoma A375 cells. In words: WST-1 antiproliferative assay. The format is cell-based. To be noted: Homo sapiens, A-375. The source says:
The A375 malignant melanoma cell line (ECACC 88113005, Salisbury, UK) was procured from the European Collection of Authenticated Cell Cultures (ECACC). The primary culture of human dermal fibroblasts (HDF) was derived from skin according to the protocol approved by the Ethical Committee of Pomeranian Medical University in Szczecin (KB-0012/02/18). The detailed protocol of fibroblast isolation, authentication, and cell culture conditions was previously described. Both cell lines were cultivated in a humidified incubator under conditions of 5% CO2 and a temperature of 37°C, using Dulbecco’s modified Eagle’s medium (DMEM) with 4500 mg/L glucose (Sigma-Aldrich Merck Group, St. Louis, MO, USA) enriched with 10% heat-inactivated fetal bovine serum (FBS, EURx, Gdańsk, Poland), 2 mM L-glutamine (Sigma-Aldrich Merck Group, St. Louis, MO, USA), and penicillin-streptomycin solution (Sigma-Aldrich Merck Group, St. Louis, MO, USA). Regular assessments for the presence of mycoplasma were conducted using the MycoAlert® Mycoplasma Detection Kit (Lonza, Rockland, ME, USA).
The evaluation of the antiproliferative activity of the compounds was performed using the Cell Proliferation Reagent WST-1 assay (Roche, Germany). This assay relies on the reduction of tetrazolium salt to formazan, with the final amount of formazan proportional to the number of viable cells. In our study, A375 cells (2×10^3) and HDF (3×10^3) were initially seeded into 96-well plates and cultured in a humidified atmosphere of 5% CO2 at 37°C. 24 hours later, the culture medium was replaced with a medium containing the tested compounds for a 48-hour incubation period at specified final concentrations. […] For control purposes, cells without the tested compounds, which contained only the vehicle (DMSO), were used. Additionally, a blank sample consisting of tested compounds in a medium (without cells) was included. After the 48-hour incubation period, the WST-1 reagent was introduced and allowed to incubate with the cells for 30 minutes. The absorbance was subsequently measured at 450 nm with background correction at 620 nm using a microplate reader (Infinite 200 Pro, Tecan, Männedorf, Switzerland). Cell viability was calculated according to the following formula: [(Atest–Ablank)/ (Acontrol − Ablank)] × 100%. These measurements were conducted in triplicate for at least three independent experiments.
In the screening step, 10 µM solutions of all 33 compounds were tested on A375 cells. […] Selected compounds (2c, 18e, 16b, 29) were tested at concentrations of 0.1, 1, 10, 50, and 100 µM. The IC50 values were determined using an online calculator (AAT Bioquest, Inc., Quest Graph™ IC50 Calculator (v.1). Retrieved from https://www.aatbio.com/tools/IC50-calculator-v1, accessed on: 2022, December 12).

On to `COc1cc(Cn2cc(-c3cccs3)ccc2=S)cc(OC)c1OC` [Compound 16b], for which the “percentage of annexin-positive cells” value with A375 cells (5 µM) was 18.43 ± 2.90%; in the assay with A375 cells (10 µM) it was 30.50 ± 1.27%. In addition, in the assay on melanoma A375 cells (10 µM, 48 h of treatment, A375, read-out: Cell proliferation (% control)), the activity at 10 µM worked out at 42.8 ± 22.9%. The midpoint of inhibition in the assay on melanoma A375 cells (48 hours of treatment), the IC50, lay at 1.85 ± 0.44 µM.

Broadly, the IC50 is the concentration at which inhibition is half-maximal. Read a low IC50 as inhibition by little substance.
